Patent EP0334218A1, “Solid, especially suited for oral and rectal adiministration, etofenamate-containing preparations” (HEXAL-PHARMA GMBH & CO. KG, priority 1988, dated 1989)
In brackets after ≈: the same amount, converted by molar mass.

Experiment: Solubility behaviour (dissolved etofenamate over time) in distilled water
Assay type: physicochemical
Conditions: 22° C, read-out: Etofenamat gelöst
Description: Vergleich des Löslichkeitsverhaltens von reinem Etofenamat und zwei Etofenamat-Cyclodextrinzubereitungen gemäß der Erfindung:
Die Untersuchungen wurden in destilliertem Wasser bei 22° C durchgeführt und erbrachten die folgenden Ergebnisse: […]

Which solubility at 1 min (1 min) does the source give for `O=C(OCCOCCO)c1ccccc1Nc1cccc(C(F)(F)F)c1` [Etofenamat, 2-(2-Hydroxyethoxy)-ethyl-N-(α,α,α-trifluoro-m-tolyl)-anthranilat] here?
The solubility at 1 min was 9 µg/mL (≈ 24.4 µM).

And the solubility at 0.05 h (3 min)?
Its solubility at 0.05 h is 11 µg/mL (≈ 29.8 µM).

And the solubility at 5 min (5 min)?
The solubility at 5 min was 11 µg/mL (≈ 29.8 µM).

And the solubility at 10 min (10 min)?
Its solubility at 10 min is 11 µg/mL (≈ 29.8 µM).

What about the solubility at 0.25 h (15 min) of the same compound?
Its solubility at 0.25 h is 13 µg/mL (≈ 35.2 µM).

And the solubility at 0.5 h (30 min)?
The solubility at 0.5 h was 13 µg/mL (≈ 35.2 µM).

What about the solubility at 0.75 h (45 min) of the same compound?
Its solubility at 0.75 h is 11 µg/mL (≈ 29.8 µM).

And the solubility at 1 h (60 min)?
The solubility at 1 h was 12 µg/mL (≈ 32.5 µM).
